Laboratory results as given in ChEMBL document CHEMBL1275274, “Direct renin inhibitors as a new therapy for hypertension” (J Med Chem, 2010).
Residue numbers refer to the chain shown, from its start. ≈ marks a conversion by molar mass, not a printed value.

Key:
[1] = molecular target: T1, Renin (Homo sapiens, UniProt P00797); test: Binding affinity to human recombinant renin by isothermal titration calorimetry
T1 sequence (P00797 whole entry): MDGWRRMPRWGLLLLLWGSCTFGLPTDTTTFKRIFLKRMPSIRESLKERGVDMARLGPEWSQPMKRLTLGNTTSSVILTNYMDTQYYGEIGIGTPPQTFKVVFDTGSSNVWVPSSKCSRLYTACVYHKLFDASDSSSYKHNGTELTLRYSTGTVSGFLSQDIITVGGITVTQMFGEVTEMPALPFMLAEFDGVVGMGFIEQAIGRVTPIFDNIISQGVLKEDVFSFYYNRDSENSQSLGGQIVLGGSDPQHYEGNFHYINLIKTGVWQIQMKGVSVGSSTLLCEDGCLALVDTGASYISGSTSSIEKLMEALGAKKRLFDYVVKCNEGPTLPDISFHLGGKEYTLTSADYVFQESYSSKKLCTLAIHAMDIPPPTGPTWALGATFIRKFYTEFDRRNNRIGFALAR

[2] = molecular target: T1, Renin; test: Inhibition of human recombinant renin in buffer
[3] = molecular target: T1, Renin; assay type: cell-free, Plasma
[4] = Aqueous solubility of the compound at pH 6.6 buffer; assay type: physicochemical
[5] = Partition coefficient, log P of the compound at pH 7.4; assay type: physicochemical; settings: octanol/water
[6] = (§1) Oral bioavailability in dog; assay type: ADME, organism-based, Canis lupus familiaris; settings: in vivo
[7] = Competitive inhibition of pig pepsin at pH 5; design: species or system Sus scrofa
[8] = Oral bioavailability in rat; assay type: ADME, organism-based; settings: in vivo
[9] = molecular target: T1, Renin; test: Inhibition of renin in pH 7.4 buffer
[10] = Oral bioavailability in Wistar rat; assay type: ADME, organism-based; settings: in vivo
[11] = Distribution coefficient, log D of the compound; assay type: physicochemical; settings: octanol/water
[12] = Elimination half life in Wistar rat; assay type: ADME, organism-based; settings: in vivo, read-out: beta t1/2 (converted)
[13] = Tmax in Wistar rat; assay type: ADME, organism-based; settings: in vivo
[14] = molecular target: T2, Renin (Macaca mulatta, UniProt Q6DLW5); test: Inhibition of renin in monkey plasma
T2 sequence (Q6DLW5 whole entry): T1 sequence (P00797 whole entry) with T68A, I214L, S235A, Q270P, R406H

[15] = molecular target: Cathepsin D (Homo sapiens, UniProt P07339); test: Inhibition of cathepsin D
[16] = Elimination half life in dog; assay type: ADME, organism-based, Canis lupus familiaris; settings: in vivo, read-out: beta t1/2 (converted)
[17] = Oral bioavailability in monkey; assay type: ADME, organism-based, Macaca mulatta; settings: rhesus monkey, in vivo
[18] = Elimination half life in rhesus monkey; assay type: ADME, organism-based, Macaca mulatta; settings: in vivo, read-out: beta t1/2 (converted)
[19] = Oral bioavailability in rhesus monkey; assay type: ADME, organism-based, Macaca mulatta; settings: in vivo
[20] = molecular target: T3, Cathepsin E (Homo sapiens, UniProt P14091); test: Inhibition of cathepsin E
T3 sequence (P14091 whole entry): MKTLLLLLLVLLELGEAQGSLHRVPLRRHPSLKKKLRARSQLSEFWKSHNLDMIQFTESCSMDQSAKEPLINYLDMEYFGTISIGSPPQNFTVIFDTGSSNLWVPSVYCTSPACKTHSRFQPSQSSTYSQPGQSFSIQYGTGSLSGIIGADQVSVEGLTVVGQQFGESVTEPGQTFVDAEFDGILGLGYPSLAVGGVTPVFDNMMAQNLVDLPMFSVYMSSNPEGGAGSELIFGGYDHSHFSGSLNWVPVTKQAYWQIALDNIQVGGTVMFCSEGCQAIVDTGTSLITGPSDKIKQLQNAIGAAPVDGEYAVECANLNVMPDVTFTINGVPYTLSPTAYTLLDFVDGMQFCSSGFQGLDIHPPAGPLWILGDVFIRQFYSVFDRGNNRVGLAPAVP

[21] = molecular target: Cytochrome P450 3A4 (Homo sapiens, UniProt P08684); test: Inhibition of CYP3A4; assay type: ADME
[22] = Inhibition of Cytochrome P450; assay type: ADME
[23] = system: Canis familiaris; test: as §1; assay type: ADME, organism-based, Canis lupus familiaris; settings: in vivo
[24] = system: Callithrix jacchus; test: Oral bioavailability in marmoset; assay type: ADME, organism-based; settings: in vivo
[25] = molecular target: T4, Renin-1 (Mus musculus, UniProt P06281); test: Inhibition of mouse renin
T4 sequence (P06281 whole entry): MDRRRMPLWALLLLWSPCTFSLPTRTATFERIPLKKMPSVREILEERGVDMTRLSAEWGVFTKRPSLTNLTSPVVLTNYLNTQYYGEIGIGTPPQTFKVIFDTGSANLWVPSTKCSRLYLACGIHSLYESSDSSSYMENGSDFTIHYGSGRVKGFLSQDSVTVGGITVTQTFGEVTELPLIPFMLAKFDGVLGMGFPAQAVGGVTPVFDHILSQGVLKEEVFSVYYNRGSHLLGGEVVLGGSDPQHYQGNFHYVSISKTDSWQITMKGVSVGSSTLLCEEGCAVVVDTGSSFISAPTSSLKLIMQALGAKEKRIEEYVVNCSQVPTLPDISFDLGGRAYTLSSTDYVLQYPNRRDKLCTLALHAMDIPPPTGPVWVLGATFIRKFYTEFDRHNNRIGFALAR

[26] = molecular target: Voltage-gated inwardly rectifying potassium channel KCNH2 (Homo sapiens, UniProt Q12809); test: Inhibition of human ERG
[27] = molecular target: T1, Renin; test: Inhibition of renin in human plasma; assay type: cell-free

Chain of Cathepsin D (P07339 65-162 limits assumed): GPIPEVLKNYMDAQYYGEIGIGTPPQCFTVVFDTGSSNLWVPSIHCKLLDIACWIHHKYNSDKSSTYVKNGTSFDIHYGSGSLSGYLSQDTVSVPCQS
Chain of Cathepsin D (P07339 169-412 limits assumed): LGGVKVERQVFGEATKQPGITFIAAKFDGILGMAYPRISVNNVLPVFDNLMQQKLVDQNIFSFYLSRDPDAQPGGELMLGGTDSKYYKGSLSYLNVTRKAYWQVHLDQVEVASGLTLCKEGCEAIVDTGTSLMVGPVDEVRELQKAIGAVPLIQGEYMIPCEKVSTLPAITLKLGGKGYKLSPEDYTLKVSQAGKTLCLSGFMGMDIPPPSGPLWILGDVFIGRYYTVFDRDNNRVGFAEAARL
Chain of Voltage-gated inwardly rectifying potassium channel KCNH2 (Q12809 whole entry): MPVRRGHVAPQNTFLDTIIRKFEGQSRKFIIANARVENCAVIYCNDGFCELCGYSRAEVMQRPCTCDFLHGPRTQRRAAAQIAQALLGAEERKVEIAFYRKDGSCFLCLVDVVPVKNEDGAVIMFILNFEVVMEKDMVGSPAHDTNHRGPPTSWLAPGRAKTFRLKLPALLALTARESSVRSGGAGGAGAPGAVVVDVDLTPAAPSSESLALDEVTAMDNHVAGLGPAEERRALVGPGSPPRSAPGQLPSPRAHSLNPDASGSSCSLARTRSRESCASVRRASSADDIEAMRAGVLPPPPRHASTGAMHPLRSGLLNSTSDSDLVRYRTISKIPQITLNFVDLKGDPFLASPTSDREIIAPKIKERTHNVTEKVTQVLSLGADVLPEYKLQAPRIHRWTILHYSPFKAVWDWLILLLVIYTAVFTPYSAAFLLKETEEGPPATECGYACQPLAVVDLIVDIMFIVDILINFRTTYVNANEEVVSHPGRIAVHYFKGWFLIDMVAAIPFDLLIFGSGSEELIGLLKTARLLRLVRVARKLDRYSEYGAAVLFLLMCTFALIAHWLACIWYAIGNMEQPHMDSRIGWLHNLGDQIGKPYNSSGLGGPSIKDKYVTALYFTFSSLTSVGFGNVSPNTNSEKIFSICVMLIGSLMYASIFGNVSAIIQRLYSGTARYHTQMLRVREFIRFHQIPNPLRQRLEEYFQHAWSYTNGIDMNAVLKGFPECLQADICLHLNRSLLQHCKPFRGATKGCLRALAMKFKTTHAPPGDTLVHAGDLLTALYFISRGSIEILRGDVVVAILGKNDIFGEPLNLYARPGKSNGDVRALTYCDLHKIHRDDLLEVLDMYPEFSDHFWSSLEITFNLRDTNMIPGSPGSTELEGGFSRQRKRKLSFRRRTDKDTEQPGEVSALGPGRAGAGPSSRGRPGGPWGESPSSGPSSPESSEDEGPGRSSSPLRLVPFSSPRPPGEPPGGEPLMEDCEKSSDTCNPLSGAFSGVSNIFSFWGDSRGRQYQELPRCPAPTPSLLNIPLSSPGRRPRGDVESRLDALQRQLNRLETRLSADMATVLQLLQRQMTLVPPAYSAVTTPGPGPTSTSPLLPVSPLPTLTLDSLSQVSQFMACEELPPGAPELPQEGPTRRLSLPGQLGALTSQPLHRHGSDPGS
Chain of Cytochrome P450 3A4 (P08684 whole entry): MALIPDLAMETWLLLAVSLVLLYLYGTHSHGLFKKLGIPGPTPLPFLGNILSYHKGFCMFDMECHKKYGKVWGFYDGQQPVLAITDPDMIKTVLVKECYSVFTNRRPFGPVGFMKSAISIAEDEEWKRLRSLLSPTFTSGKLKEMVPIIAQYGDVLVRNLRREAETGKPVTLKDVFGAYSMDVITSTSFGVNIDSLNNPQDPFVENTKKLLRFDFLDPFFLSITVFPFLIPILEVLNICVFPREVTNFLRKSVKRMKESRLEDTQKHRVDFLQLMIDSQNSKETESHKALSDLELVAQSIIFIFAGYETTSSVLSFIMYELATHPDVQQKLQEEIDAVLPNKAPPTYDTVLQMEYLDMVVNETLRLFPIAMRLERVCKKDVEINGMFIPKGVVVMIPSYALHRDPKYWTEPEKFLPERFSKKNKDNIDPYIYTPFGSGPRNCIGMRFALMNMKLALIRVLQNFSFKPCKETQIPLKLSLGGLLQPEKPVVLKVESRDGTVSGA

## CCc1nc(N)nc(NCCc2ccccc2NC(=O)c2ccc(N)c(OC)c2)c1-c1ccc2c(c1)N(CCCOC)C(=O)C(C)(C)O2
[1]
  Kd: 270 nM

## COCCCN1C(=O)COC2C=CC(OC[C@H]3CNCC(=O)N3c3ccc(OCCCOCc4ccccc4OC)cc3)=CC21 (stereo not given in full)
[2]
  IC50: 0.68 nM

## CCCCNC(=O)[C@H](C)C[C@H](O)[C@@H](N)C[C@H](C)COC(=O)c1cn(Cc2ccccc2)c2ccccc12
[2]
  IC50: 1 nM

## Brc1ccc([C@H]2CCNC[C@@H]2OCc2ccc3ccccc3c2)cc1
[2]
  IC50: 5000 nM

## COc1ccccc1COCCCOc1ccc([C@@H]2[C@@H](OCc3cc(OC)c4ccccc4c3)CNC[C@H]2OC[C@H](O)CO)cc1
[2]
  IC50: 0.06 nM
[3]
  IC50: 2.2 nM
[4]
  solubility: 24 µg/mL (≈ 38 µM)
[5]
  logD: 3.7
[6]
  bioavailability: 27%

## COc1ccccc1COCCCOc1ccc(N2CCNC[C@@H]2COC2=CC3C(C=C2)CCCN3CCNC(C)=O)cc1 (stereo not given in full)
[2]
  IC50: 0.5 nM

## CC(C)C[C@H](O)[C@H](O)[C@H](CC1CCCCC1)NC(=O)[C@H](Cc1cnc[nH]1)NC(=O)C[C@H](C)c1ccccc1
[2]
  IC50: 11 nM

## CCc1nc(N)nc(NCCNS(=O)(=O)c2ccc3ccccc3c2)c1-c1ccc2c(c1)N(CCCOC)C(=O)C(C)(C)O2
[1]
  Kd: 79 nM

## COc1ccc(CO[C@H]2CNCC[C@@H]2c2ccc(Cl)cc2)cc1
[2]
  IC50: 25000 nM
[7]
  IC50: 1500 nM

## COc1ccccc1COCCCOc1ccc(N2C(=O)CNC[C@@H]2COC2=CC3C(C=C2)CCCN3CCNC(C)=O)cc1 (stereo not given in full)
[2]
  IC50: 0.29 nM

## COc1cccc(OCCCc2cccnc2)c1C(=O)N[C@@H](CC1CCCCC1)[C@@H](O)[C@@H](O)CC(C)C
[2]
  IC50: 39 nM

## CNC[C@H](CC1CCCCC1)NC(=O)N1CCC[C@@H]([C@@H](OCCNC(=O)OC)c2cccc(Cl)c2)C1
[8]
  bioavailability: 9%
[3]
  IC50: 0.8 nM

## CCC(C)C[C@H](NC(=O)[C@@H](NC[C@@H](O)[C@@H](N)CCCc1ccc(-c2ccccc2)cc1)C(C)C)C(=O)NCCCc1ccccc1 (stereo not given in full)
[9]
  IC50: 4 nM

## CCCCNC(=O)[C@H](C)C[C@H](O)[C@@H](N)C[C@@H](CNC(=O)c1cn(CC)c2ccccc12)C(C)C
[3]
  IC50: 4 nM

## COC[C@@H](O)CO[C@@H]1CNC[C@H](OCc2cc(OC)c3ccccc3c2)[C@H]1c1ccc(OCCCOCc2ccccc2OC)cc1
[3]
  IC50: 8.9 nM
[4]
  solubility: 3 µg/mL (≈ 4.65 µM)
[5]
  logD: 5.7
[6]
  bioavailability: 6%

## CNC[C@H](CC1CCCCC1)NC(=O)N1CCC[C@@H]([C@@H](OCCCOC)c2ccccc2)C1
[8]
  bioavailability: 36%
[3]
  IC50: 447 nM

## Cc1cc(Cl)c(OCCOc2ccc(C3=C(C(=O)N(Cc4cccc(C)c4C)C4CC4)[C@H]4CNC[C@@H](C3)N4)cc2)c(Cl)c1
[10]
  bioavailability: 24%
[2]
  IC50: 0.2 nM
[8]
  bioavailability: 24%
[3]
  IC50: 19 nM
[11]
  logD: > 4.9
[12]
  half-life: 6.6 h
[13]
  Tmax: 10 h

## COc1ccccc1COCCCOc1ccc(N2C(=O)CNC[C@@H]2COCc2cccnc2)cc1
[2]
  IC50: 12 nM

## COc1ccccc1COCCCOc1ccc(C2=C(C(=O)N(Cc3ccnc(OC)c3C)C3CC3)[C@H]3CNC[C@@H](C2)N3)cc1
[2]
  IC50: 1.4 nM
[3]
  IC50: 18 nM

## COc1ccccc1COCCCOc1ccc([C@H]2CCNC[C@@H]2OCc2ccc3c(c2)NCCC3)cc1
[2]
  IC50: 0.21 nM
[3]
  IC50: 31 nM
[4]
  solubility: 3 µg/mL (≈ 5.81 µM)
[11]
  logD: 5.6

## C=CC[C@H](NC(=O)CNS(=O)(=O)N1CCOCC1)C(=O)N[C@@H](CC1CC=C(c2cccc3ccccc23)CC1)[C@@H](O)[C@@H](O)CC(C)C (stereo not given in full)
[14]
  IC50: 11 nM

## O=C(C1=C(c2ccc(CCCOc3c(F)ccc(F)c3Cl)cc2)C[C@@H]2CNC[C@H]1N2)N(Cc1cccc(Cl)c1Cl)C1CC1
[15]
  IC50: 2700 nM
[16]
  half-life: 10 h
[6]
  bioavailability: 36%
[11]
  logD: > 4.6
[17]
  bioavailability: 9%
[18]
  half-life: 10 h
[19]
  bioavailability: 9%
[20]
  IC50: 8100 nM
[21]
  IC50: > 10000 nM

## CCc1nc(N)nc(N)c1-c1ccc2c(c1)N(CCCO)C(=O)C(C)(c1ccccc1)O2 (racemic)
[22]
  IC50: > 30000 nM
[8]
  bioavailability: 44%

## CCc1nc(N)nc(N)c1-c1ccc2c(c1)N(CCNC(C)=O)C(=O)[C@](C)(c1ccccc1)O2
[8]
  bioavailability: 10%

## COc1ccccc1COCCCOc1ccc(C2=C(C(=O)N(Cc3cccc(OC)c3C)C3CC3)[C@H]3CNC[C@@H](C2)N3)cc1
[2]
  IC50: 0.62 nM

## COC[C@@H]1CNC[C@H](OCc2ccc3ccccc3c2)[C@H]1c1ccc(COC(=O)c2ccccc2Cl)cc1
[2]
  IC50: 2 nM

## COCCCN1C(=O)COC2C=CC(SC[C@H]3CNCC(=O)N3c3ccc(OCCCOCc4ccccc4OC)cc3)=CC21 (stereo not given in full)
[2]
  IC50: 0.18 nM

## COCCCOc1cc(C[C@@H](C[C@H](N)[C@@H](O)C[C@H](C(=O)NCC(C)(C)C(N)=O)C(C)C)C(C)C)ccc1OC
[23]
  F: 32%
[24]
  F: 16%
[25]
  IC50: 4.5 nM

## CN[C@H](CNC(=O)N1CCC[C@@H]([C@@H](OCCNC(=O)OC)c2cccc(Cl)c2)C1)C[C@H]1CCCOC1 [VTP-27999]
[3]
  IC50: < 10 nM

## COc1ccccc1COCCCOc1ccc([C@H]2CCNC[C@@H]2OCc2ccc3c(c2)N(CCNC(C)=O)CCC3)cc1
[3]
  IC50: 0.6 nM
[4]
  solubility: 124 µg/mL (≈ 206 µM)
[11]
  logD: 3

## CCCCNC(=O)[C@H](C)C[C@H](O)[C@@H](N)CC(C)(C)CC(=O)N1C[C@H](C(=O)OC)Cc2ccccc21
[2]
  IC50: 0.8 nM

## COCCCCOc1ccccc1C(=O)NC[C@@H](C[C@H](N)[C@@H](O)C[C@H](C(=O)NCCC1CCN(C(C)=O)CC1)C(C)C)C(C)C
[3]
  IC50: 0.3 nM

## CNC[C@H](CC1CCCCC1)NC(=O)N1CCC[C@@H]([C@@](O)(CCCCOC)c2cccc(Cl)c2)C1
[8]
  bioavailability: 13%
[26]
  IC50: > 30000 nM
[4]
  solubility: > 1000 µg/mL

## CCCCNC(=O)[C@@H](NC[C@@H]1CCCCOc2ccccc2C[C@H](NC(=O)OC(C)(C)C)C(=O)N[C@@H](Cc2cnc[nH]2)C(=O)N1)C(C)C
[27]
  IC50: 20 nM

## CC[C@H]1CC[C@](O)(CCc2ccccc2)C[C@@H]1C(=O)N[C@@H](CC1CCCCC1)[C@@H](O)[C@@H](O)CC(C)C
[2]
  IC50: 11 nM
